Measurements reported in patent publication US10588608B2, “Sampling systems and related materials and methods” (Progenity Inc., priority 2016, dated 2020).
Read-outs that look alike come from different tables or passages of the source.

Columns and labels:
bacteria = test: Bactericidal preservatives added to bacteria, cell counts by flow cytometry or cell plating; format: cell-based; conditions: cell counts over 3 days, FIG. 60
bacterial cells = conditions: preservative with TENT, PCR or plating, FIG. 59A/59B
[1] = high concentration culture, 4.5×10^6 cells
[2] = low concentration culture, 8.6×10^4 cells

| Compound | viability of bacteria over time (bacteria) | viability of bacteria (bacterial cells; [1]) | viability of bacteria (bacterial cells; [2]) |
| --- | --- | --- | --- |
| O=C(NCO)N(CO)C1(CO)C(=O)NC(=O)N1CO (centres unmarked) [diazolidinyl urea] | reduced the viability of bacteria |  |  |
| C[CH2][Hg][S]c1ccccc1C(=O)[O-].[Na+] [thimerosal] | reduced the viability of bacteria | reduce the viability of bacteria | reduce the viability of bacteria |
| C/C=C/C=C/C(=O)O [sorbic acid] |  | reduce the viability of bacteria | reduce the viability of bacteria |
| OCCOc1ccccc1 [2-phenoxyethanol] |  | reduce the viability of bacteria | reduce the viability of bacteria |
